Results as given in PMC12670160, “A drug-repurposing screen of FDA- and EMA-approved drugs identifies two NF-κB inhibitors active against eumycetoma” (Journal of Antimicrobial Chemotherapy, 2025).
Values after ≈ are worked out from the molar mass of the structure shown. Structures can show the parent of a compound that is named as a salt. Where two headings read alike, the source gives them in different places.

Legend:
[1] = test system: M. mycetomatis strain mm55; assay: IC50 and MIC determination, CellTiter-Glo, strain mm55; assay type: cell-based, Madurella mycetomatis; conditions: Madurella mycetomatis; for IC50: concentration inhibiting 50% of fungal hyphae growth; for MIC: concentration with complete growth inhibition
M. mycetomatis strain I1 = assay: IC50 and MIC determination, CellTiter-Glo, strain I1; assay type: cell-based, Madurella mycetomatis; conditions: Madurella mycetomatis, I1
M. mycetomatis strain P1 = assay: IC50 and MIC determination, CellTiter-Glo, strain P1; assay type: cell-based, Madurella mycetomatis; conditions: Madurella mycetomatis, P1
M. mycetomatis = assay: In vitro susceptibility, averages over M. mycetomatis isolates (average metabolic activity at 2 µM, mean MIC); assay type: cell-based; conditions: Madurella mycetomatis, 96 h, 4 days at 37°C, CellTiter-Glo, average of 3 isolates, 20% or below = inhibition
Procedure: M. mycetomatis isolate MM55 was used to screen the Oncode library. This strain was kindly provided by Prof. […] The three M. mycetomatis isolates were identified by ITS sequencing and maintained at −80°C at Erasmus MC. Prior to in vitro screening, isolates were cultured on Sabouraud agar plates (BD, Erembodegem, Belgium) at 37°C.
The Oncode Drug Repurposing library was based on the drug repurposing library from the Drug Repurposing Hub of the Broad Institute and recreated by the Oncode institute.[13] […] Each well of the 384-well plates contained 0.6 µL of a 200 µM stock concentration of compound, resulting in a final concentration of 2 µM when the fungus was added. […] Furthermore, this concentration could also be reached in the G. mellonella larvae.[8],[11] The prepared 384-well plates were transferred on dry ice to the Erasmus MC and stored at −80°C until they were screened.
Each plate also contained a growth control (60 µL of M. mycetomatis hyphal suspension, plus 0.6 µL of DMSO) and a negative control (60 µL of culture medium, plus 0.6 µL of DMSO). Plates were then incubated for 4 days at 37°C, after which 30 µL of CellTiter-Glo 3D Cell Viability reagent was added to every well.[19] After 25 min of incubation at room temperature, the luminescence was measured with a CytoFluor Series 4000 luminometer (PerSeptive Biosystems, Framingham, MA, USA). To determine the metabolic activity, the following formula was used:
Percentagemetabolicactivity=(Absorbancetestluminensence−AbsorbanceNCluminensence/AbsorbanceGCluminensence−AbsorbanceNCluminensence)×100
where, GC is growth control and NC is negative control. The luminescence measured for the GC is considered as 100% metabolic activity. The luminescence for the NC is considered as 0% metabolic activity.

[2] = test system: M. mycetomatis strain mm55; conditions: 96 h, 2 µM

Compound | % viability ([2]; m. mycetomatis hyphae) [%] | other results
C=C(c1ccccc1OCc1cccc(Cl)c1)n1ccnc1 [Cloconazole HCl] |  | IC50 [1]: 0.85 µM; MIC [1]: 1 µM; IC50 (M. mycetomatis strain I1): 0.41 µM; MIC (M. mycetomatis strain I1): 0.5 µM; IC50 (M. mycetomatis strain P1): 0.74 µM; MIC (M. mycetomatis strain P1): 1 µM; activity at 2 µM (M. mycetomatis): 1.7%
Clc1ccccc1C(c1ccccc1)(c1ccccc1)n1ccnc1 [Clotrimazole] |  | MIC [1]: 1 µM (≈ 0.345 µg/mL); MIC (M. mycetomatis strain I1): 0.5 µM (≈ 0.172 µg/mL); MIC (M. mycetomatis strain P1): 1 µM (≈ 0.345 µg/mL); activity at 2 µM (M. mycetomatis): 4%
C=C1CCN([C@H](C)[C@](O)(Cn2cncn2)c2ccc(F)cc2F)CC1 [Efinaconazole] |  | IC50 [1]: 0.04 µM; MIC [1]: 0.06 µM (≈ 0.0209 µg/mL); IC50 (M. mycetomatis strain I1): 0.05 µM; MIC (M. mycetomatis strain I1): 0.06 µM (≈ 0.0209 µg/mL); IC50 (M. mycetomatis strain P1): < 0.03 µM; MIC (M. mycetomatis strain P1): 0.03 µM (≈ 0.0105 µg/mL); activity at 2 µM (M. mycetomatis): 0%
C=CCOC(Cn1ccnc1)c1ccc(Cl)cc1Cl (centres unmarked) [Enilconazole sulphate] |  | IC50 [1]: 1.25 µM; MIC [1]: 2 µM; IC50 (M. mycetomatis strain I1): 0.42 µM; MIC (M. mycetomatis strain I1): 0.5 µM; IC50 (M. mycetomatis strain P1): 0.56 µM; MIC (M. mycetomatis strain P1): 1 µM; activity at 2 µM (M. mycetomatis): 1.3%
Fc1ccc(C(c2ccccc2)(c2ccccc2F)n2ccnc2)cc1 (centres unmarked) [Flutrimazole] |  | IC50 [1]: 0.92 µM; MIC [1]: 2 µM (≈ 0.693 µg/mL); IC50 (M. mycetomatis strain I1): 0.42 µM; MIC (M. mycetomatis strain I1): 0.5 µM (≈ 0.173 µg/mL); IC50 (M. mycetomatis strain P1): 0.37 µM; MIC (M. mycetomatis strain P1): 0.5 µM (≈ 0.173 µg/mL); activity at 2 µM (M. mycetomatis): 0%
C[N+]12CCC(CC1)C(OC(=O)C(O)(c1ccccc1)c1ccccc1)C2 (centres unmarked) [ONC0000315, clidinium bromide] | 88.97 | 
COc1cc2c(c(OC)c1OC)-c1ccc(OC)c(=O)cc1[C@@H](NC(C)=O)CC2 [ONC0000317, colchicine] | 73.45 | 
CCC(=O)O[C@@H]1CC(=O)O[C@H](C)C/C=C/C=C/[C@H](O)[C@H](C)C[C@H](CC=O)[C@H](O[C@@H]2O[C@H](C)[C@@H](O[C@H]3C[C@@](C)(O)[C@@H](OC(=O)CC)[C@H](C)O3)[C@H](N(C)C)[C@H]2O)[C@H]1OC [ONC0000323, midecamycin] | 88.92 | 
O=P1(N(CCCl)CCCl)NCCCO1 (centres unmarked) [ONC0000336, cyclophosphamide] | 62 | 
O=C(O)CCCc1ccc(N(CCCl)CCCl)cc1 [ONC0000730, chlorambucil] | 84.26 | 
COc1ccc2c(O[C@@H]3C[C@H]4C(=O)N[C@]5(C(=O)NS(=O)(=O)C6CC6)C[C@H]5/C=C\CCCCN(C)C(=O)[C@@H]4C3)cc(-c3nc(C(C)C)cs3)nc2c1C [ONC0000991, simeprevir] | 85.85 | 
CC[C@@](C)(Nc1ccnc(-c2c[nH]c3ncccc23)n1)C(=O)NCC(F)(F)F [ONC0001022, decernotinib] | 66.72 | 
O=C(Nc1nc2cccc(-c3ccc(CN4CCS(=O)(=O)CC4)cc3)n2n1)C1CC1 [ONC0001023, filgotinib] | 70.26 | 
CC(C)(O)CNc1nc(Nc2ccnc(C(F)(F)F)c2)nc(-c2cccc(C(F)(F)F)n2)n1 [ONC0001138, enasidenib] | 67.01 | 
CC1(C)CN(C(=O)c2ccc(-c3cccc4nc(NC(=O)C5CC5)nn34)cc2)C1 [ONC0001278, solcitinib] | 60.54 | 
COc1cc(NC(=O)Nc2cccc(CNC(=O)O[C@H]3CCOC3)c2)ccc1-c1cnco1 [ONC0001842, merimepodib] | 78.29 | 
O=C(O)C[C@H]1CC[C@H](c2ccc(-c3ccc(Nc4ccc(C(F)(F)F)nc4)cn3)cc2)CC1 [ONC0001945, pradigastat] | 103.8 | 
CCCC(C)C1(CC)C(=O)NC(=S)NC1=O (centres unmarked) [ONC0001983, thiopental] | 75.11 | 
CC(C)NCCCn1c(Sc2cc3c(cc2I)OCO3)nc2c(N)ncnc21 [ONC0002276, puh71] | 67.16 | 
CCN(CC)C(C)C(=O)c1ccccc1 (centres unmarked) [ONC0002292, amfepramone] | 71.71 | 
CC(=O)Oc1ccccc1C(=O)Nc1ncc([N+](=O)[O-])s1 [ONC0002436, nitazoxanide] | 87.75 | 
c1ccc2oc(C3=NCCN3)cc2c1 [ONC0002719, 2bfi] | 76.35 | 
CC(C)CN(C[C@@H](O)[C@H](Cc1ccccc1)NC(=O)O[C@H]1CCOC1)S(=O)(=O)c1ccc(N)cc1 [ONC0003406, amprenavir] | 51.58 | 
COC(=O)[C@@H]1C[C@H](OC(C)=O)C(=O)[C@H]2[C@@]1(C)CC[C@H]1C(=O)O[C@H](c3ccoc3)C[C@]21C [ONC0003459, salvinorin a] | 35.37 | 

Compound | % viability ([2]; m. mycetomatis hyphae) [%] | other results
CCOP(=S)(OCC)Oc1cc(C)nc(C(C)C)n1 [ONC0003874, dimpylate] | 60.75 | 
COc1cccc([C@]2(O)CCCC[C@H]2CN(C)C)c1 [ONC0004178, tramadol hydrochloride] | 135.3 | 
CS[C@H]1SC[C@H]2C(=O)N(C)[C@@H](C(C)C)C(=O)OC[C@@H](NC(=O)c3cnc4ccccc4n3)C(=O)N[C@@H](C)C(=O)N(C)[C@@H]1C(=O)N(C)[C@@H](C(C)C)C(=O)OC[C@@H](NC(=O)c1cnc3ccccc3n1)C(=O)N[C@@H](C)C(=O)N2C [ONC0004195, echinomycin] | 114.7 | 
CCC1/C=C(\C)CC(C)CC(OC)C2OC(O)(C(=O)C(=O)N3CCCCC3C(=O)OC(/C(C)=C/C3CCC(O)C(OC)C3)C(C)C(O)CC1=O)C(C)CC2OC (centres unmarked) [ONC0004338, ascomycin fk520] | 150.4 | 
CC(C)(CO)c1cc2cc(NC(=O)C3(c4ccc5c(c4)OC(F)(F)O5)CC3)c(F)cc2n1C[C@@H](O)CO [ONC0004399, vx661] | 112.4 | 
CC(C)OC(=O)C(C)NP(=O)(COC(C)Cn1cnc2c(N)ncnc21)Oc1ccccc1 (centres unmarked) [ONC0004548, tenofovir alafenamide gs7340] | 45.02 | 
CCO[C@H]1OC(=O)C[C@@H]1NC(=O)[C@@H]1CCCN1C(=O)[C@@H](NC(=O)c1ccc(N)c(Cl)c1)C(C)(C)C [ONC0004605, belnacasan vx765] | 74.26 | 
CCC[C@H](NC(=O)[C@@H]1[C@H]2CCC[C@H]2CN1C(=O)[C@@H](NC(=O)[C@@H](NC(=O)c1cnccn1)C1CCCCC1)C(C)(C)C)C(=O)C(=O)NC1CC1 [ONC0004652, telaprevir vx950] | 71.4 | 
Cc1cc(Nc2cc(N3CCN(C)CC3)nc(Sc3ccc(NC(=O)C4CC4)cc3)n2)[nH]n1 [ONC0004696, vx680 mk0457 tozasertib] | 120.2 | 
NC(=O)c1ccc(N(C(N)=O)c2c(F)cccc2F)nc1-c1ccc(F)cc1F [ONC0004787, vx702] | 67.05 | 
CC(C)(C)c1ccc(-c2nc3ccccc3[nH]2)cc1 [ONC0004834, zln005] | 87.04 | 
CC(C)(C)C#Cc1cc(N(C(=O)[C@H]2CC[C@H](C)CC2)[C@H]2CC[C@@H](O)CC2)c(C(=O)O)s1 [ONC0004853, lomibuvir vx222 vch222] | 92.92 | 
O=c1ncn2nc(Sc3ccc(F)cc3F)ccc2c1-c1c(Cl)cccc1Cl [ONC0004865, vx745] | 118.9 | 
Cc1ccc(NC(=O)C2(c3ccc4c(c3)OC(F)(F)O4)CC2)nc1-c1cccc(C(=O)O)c1 [ONC0004867, vx809 lumacaftor] | 108.5 | 
CC(C)(C)c1cc(C(C)(C)C)c(NC(=O)c2c[nH]c3ccccc3c2=O)cc1O [ONC0004880, ivacaftor vx770] | 126.9 | 
CNCc1ccc(-c2cc(-c3nc(-c4ccc(S(=O)(=O)C(C)C)cc4)cnc3N)on2)cc1 [ONC0005048, ve822] | 77.72 | 
Cc1sc2c(c1C)C(c1ccc(Cl)cc1)=N[C@@H](CC(=O)Nc1ccc(O)cc1)c1nnc(C)n1-2 [ONC0005184, otx015] | 99.78 | 
CC[C@@]1(O)C(=O)OCc2c1cc1n(c2=O)Cc2cc3cc(O)ccc3nc2-1 [ONC0005199, 10hydroxycamptothecin] | 143.5 | 
O=C(O)[C@]1(Cc2cccc(Nc3nccs3)n2)CC[C@@H](Oc2cccc(Cl)c2F)CC1 [ONC0005246, mk5108 vx689] | 132.5 | 
Cn1c(=O)n(-c2ccc(C(C)(C)C#N)cc2)c2c3cc(-c4cnc5ccccc5c4)ccc3ncc21 [ONC0005249, dactolisib bez235 nvpbez235] | 133.4 | 
Cc1cnc(Nc2ccc(F)cc2Cl)nc1-c1c[nH]c(C(=O)N[C@H](CO)c2cccc(Cl)c2)c1 [ONC0005411, vx11e] | 117 | 
CC[C@H]1OC(=O)[C@H](C)[C@@H](O[C@H]2C[C@@](C)(OC)[C@@H](O)[C@H](C)O2)[C@H](C)[C@@H](O[C@@H]2O[C@H](C)C[C@H](N(C)C)[C@H]2O)[C@](C)(O)C[C@@H](C)[C@@H]2N[C@@H](COCCOC)O[C@H]([C@H]2C)[C@]1(C)O [ONC0005551, dirithromycin] | 98.9 | 
gonadorelin acetate [ONC0002245] |  | % viability ([2]; primary screen, metabolic activity vs growth control, inhibitor): 141.9%
